Results: patent publication US20210276987A1, “PHARMACEUTICAL AGENTS FOR USE IN SMOKING AND TOBACCO CESSATION” (Washington State University, priority 2018, published 2021)
Read-outs that look alike come from different tables or passages of the source.

How the values were obtained:
UGT2B10 = target: T1, UGT2B10 (Homo sapiens, UniProt P36537); experiment: biochemical
T1 sequence (P36537 24-528): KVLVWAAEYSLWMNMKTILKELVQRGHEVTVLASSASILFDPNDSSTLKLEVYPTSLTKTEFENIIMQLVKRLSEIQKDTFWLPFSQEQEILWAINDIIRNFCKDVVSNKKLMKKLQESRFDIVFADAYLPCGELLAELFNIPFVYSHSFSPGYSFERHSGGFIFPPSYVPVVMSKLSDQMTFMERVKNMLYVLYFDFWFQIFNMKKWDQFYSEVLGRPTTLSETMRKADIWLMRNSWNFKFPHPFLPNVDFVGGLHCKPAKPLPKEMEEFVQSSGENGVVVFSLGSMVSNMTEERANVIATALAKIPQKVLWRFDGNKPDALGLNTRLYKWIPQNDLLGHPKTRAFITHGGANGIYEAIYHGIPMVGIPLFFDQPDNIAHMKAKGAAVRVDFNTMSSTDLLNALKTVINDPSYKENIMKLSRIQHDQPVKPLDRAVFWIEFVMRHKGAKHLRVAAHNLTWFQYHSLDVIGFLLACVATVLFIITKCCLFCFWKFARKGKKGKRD
Experimental: Initial screening assays were performed as described above for the CYP assays using 1 μM or 10 μM of each of the NAs. The inhibitory effects of each agent against UGT2B10 was performed using the known UGT2B10-specific probe substrate, nicotine, in pooled human liver microsomes. […] Pre-incubations containing 500 μM nicotine and 1 or 10 μM NA were subsequently performed at 37° C. in 50 mM Tris-HCl buffer (pH 7.5, in a final volume of 50 μL) and 10 mM MgCl2 for 5 minutes.

[1] = tested on: UGTs 1A1, 1A4, 1A6, 1A9, 2B4, 2B7, 2B10, 2B15 and 2B17; experiment: Selectivity over other major hepatic UGT enzymes (panel statement); format: biochemical, human
CYP2A6 [2] = target: T2, CYP2A6 (Homo sapiens, UniProt P11509); settings: read-out: IC50 against CYP2A6; Table 5, alkyne linker agents; pooled human liver microsomes, coumarin […]
T2 sequence (P11509 1-494): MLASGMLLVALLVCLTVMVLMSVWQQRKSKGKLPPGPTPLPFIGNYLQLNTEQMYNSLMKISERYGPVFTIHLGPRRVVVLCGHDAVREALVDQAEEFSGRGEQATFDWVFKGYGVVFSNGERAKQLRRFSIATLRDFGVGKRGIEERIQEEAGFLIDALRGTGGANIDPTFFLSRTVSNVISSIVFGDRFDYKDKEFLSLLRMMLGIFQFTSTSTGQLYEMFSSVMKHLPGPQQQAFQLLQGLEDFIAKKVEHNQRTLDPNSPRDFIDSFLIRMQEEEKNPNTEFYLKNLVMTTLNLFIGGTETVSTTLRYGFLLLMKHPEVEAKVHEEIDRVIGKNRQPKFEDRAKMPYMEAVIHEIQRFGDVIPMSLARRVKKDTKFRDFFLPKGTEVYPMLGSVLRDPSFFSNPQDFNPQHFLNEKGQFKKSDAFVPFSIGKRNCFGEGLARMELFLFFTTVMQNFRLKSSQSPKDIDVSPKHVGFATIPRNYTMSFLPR

CYP2E1 = CYP2E1 (Homo sapiens, UniProt P05181); settings: Table 6
Chain of CYP2E1 (P05181 whole entry): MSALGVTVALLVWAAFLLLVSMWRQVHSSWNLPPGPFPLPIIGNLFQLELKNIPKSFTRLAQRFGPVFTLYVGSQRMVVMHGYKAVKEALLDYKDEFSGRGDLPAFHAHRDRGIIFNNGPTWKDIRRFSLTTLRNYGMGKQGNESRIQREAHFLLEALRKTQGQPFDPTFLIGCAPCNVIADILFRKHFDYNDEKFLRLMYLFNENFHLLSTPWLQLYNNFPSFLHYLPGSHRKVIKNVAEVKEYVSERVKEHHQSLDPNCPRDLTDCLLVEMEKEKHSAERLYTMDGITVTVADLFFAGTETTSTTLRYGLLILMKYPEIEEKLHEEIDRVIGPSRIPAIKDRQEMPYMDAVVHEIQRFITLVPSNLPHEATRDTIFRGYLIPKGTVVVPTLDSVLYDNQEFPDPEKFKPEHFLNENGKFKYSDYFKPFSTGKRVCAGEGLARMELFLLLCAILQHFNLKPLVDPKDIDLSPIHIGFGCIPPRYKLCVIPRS

UGT2B4 = UGT2B4 (Homo sapiens, UniProt P06133); settings: Table 10
Chain of UGT2B4 (P06133 24-528): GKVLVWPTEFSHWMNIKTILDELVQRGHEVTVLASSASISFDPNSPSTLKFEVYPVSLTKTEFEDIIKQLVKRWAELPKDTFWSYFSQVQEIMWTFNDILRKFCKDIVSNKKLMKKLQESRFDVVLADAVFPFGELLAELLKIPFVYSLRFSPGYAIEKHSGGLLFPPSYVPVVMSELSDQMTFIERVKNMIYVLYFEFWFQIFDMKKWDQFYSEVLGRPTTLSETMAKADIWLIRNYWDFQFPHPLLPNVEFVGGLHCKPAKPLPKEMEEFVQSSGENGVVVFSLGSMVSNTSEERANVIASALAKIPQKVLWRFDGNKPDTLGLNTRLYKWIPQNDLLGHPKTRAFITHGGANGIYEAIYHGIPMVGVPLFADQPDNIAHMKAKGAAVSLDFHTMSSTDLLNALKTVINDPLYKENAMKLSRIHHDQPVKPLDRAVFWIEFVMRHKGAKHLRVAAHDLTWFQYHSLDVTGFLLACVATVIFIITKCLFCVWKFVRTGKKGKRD

[3] = tested on: at least two (not named) of CYPs 1A2, 2B6, 2C8, 2C9, 2C19, 2D6, 2E1 and 3A4, relative to CYP2A6; experiment: in vitro; settings: human
CYP2A6 [4] = target: T2, CYP2A6; experiment: biochemical; settings: IC50 against CYP2A6; human liver microsomes
CYP1A2 = target: T3, CYP1A2 (Homo sapiens, UniProt P05177); experiment: CYP1A2 inhibition assay, human liver microsomes, phenacetin probe (cocktail); settings: Table 6
T3 sequence (P05177 1-516): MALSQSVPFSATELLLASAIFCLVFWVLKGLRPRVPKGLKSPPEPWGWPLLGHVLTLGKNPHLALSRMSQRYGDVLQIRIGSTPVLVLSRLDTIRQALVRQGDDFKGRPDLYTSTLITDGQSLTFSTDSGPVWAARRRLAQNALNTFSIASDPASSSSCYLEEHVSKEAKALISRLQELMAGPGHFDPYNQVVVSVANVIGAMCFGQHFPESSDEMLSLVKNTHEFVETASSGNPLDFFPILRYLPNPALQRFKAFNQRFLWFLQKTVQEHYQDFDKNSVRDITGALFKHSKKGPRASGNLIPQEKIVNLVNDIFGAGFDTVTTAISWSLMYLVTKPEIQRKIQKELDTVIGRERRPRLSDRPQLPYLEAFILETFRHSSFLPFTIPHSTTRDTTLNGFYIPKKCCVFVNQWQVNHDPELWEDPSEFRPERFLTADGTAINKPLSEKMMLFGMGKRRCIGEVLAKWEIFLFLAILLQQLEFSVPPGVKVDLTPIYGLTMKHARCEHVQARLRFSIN

CYP2C19 = CYP2C19 (Homo sapiens, UniProt P33261); experiment: CYP2C19 inhibition assay, human liver microsomes, omeprazole probe (cocktail); settings: Table 6
Chain of CYP2C19 (P33261 whole entry): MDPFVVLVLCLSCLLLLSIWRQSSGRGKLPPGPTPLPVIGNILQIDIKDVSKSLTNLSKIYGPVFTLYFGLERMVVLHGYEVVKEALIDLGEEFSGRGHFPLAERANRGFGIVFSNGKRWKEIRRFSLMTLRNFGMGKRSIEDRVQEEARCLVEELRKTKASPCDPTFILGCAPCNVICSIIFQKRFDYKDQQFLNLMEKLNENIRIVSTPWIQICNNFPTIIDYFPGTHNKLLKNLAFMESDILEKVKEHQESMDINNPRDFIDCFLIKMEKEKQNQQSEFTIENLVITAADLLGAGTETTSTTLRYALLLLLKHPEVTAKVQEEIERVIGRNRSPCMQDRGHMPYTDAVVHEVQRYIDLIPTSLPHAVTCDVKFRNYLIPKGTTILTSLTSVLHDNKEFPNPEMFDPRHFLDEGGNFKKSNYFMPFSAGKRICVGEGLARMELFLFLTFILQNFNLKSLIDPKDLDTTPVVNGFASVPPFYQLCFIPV

CYP2D6 = CYP2D6 (Homo sapiens, UniProt P10635); experiment: CYP2D6 inhibition assay, human liver microsomes, dextromethorphan probe (cocktail); settings: Table 6
Chain of CYP2D6 (P10635 whole entry): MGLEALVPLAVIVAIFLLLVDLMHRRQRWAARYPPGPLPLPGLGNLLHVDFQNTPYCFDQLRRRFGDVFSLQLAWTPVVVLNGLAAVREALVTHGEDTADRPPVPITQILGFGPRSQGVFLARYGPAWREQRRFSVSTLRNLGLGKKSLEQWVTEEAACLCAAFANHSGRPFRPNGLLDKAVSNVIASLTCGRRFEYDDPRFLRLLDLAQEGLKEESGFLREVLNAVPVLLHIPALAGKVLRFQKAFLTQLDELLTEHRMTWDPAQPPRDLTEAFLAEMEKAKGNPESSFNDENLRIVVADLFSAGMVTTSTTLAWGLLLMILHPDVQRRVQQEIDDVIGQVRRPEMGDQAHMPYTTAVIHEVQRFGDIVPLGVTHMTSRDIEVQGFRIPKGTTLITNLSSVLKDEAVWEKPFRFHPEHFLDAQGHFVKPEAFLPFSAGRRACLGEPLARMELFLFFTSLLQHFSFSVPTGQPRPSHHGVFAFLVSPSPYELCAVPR

COc1ccncc1C#CCN [Compound K, 3-(4-methoxypyridin-3-yl)prop-2-yn-1-amine]
IC50 (UGT2B10; IC50 against UGT2B10): < 60 µM
IC50 (UGT2B10; IC50 against UGT2B10 (μM), Table 9, pooled human liver microsomes, nicotine 500 μM): 33 µM
UGThepatic/UGT2B10 IC50 ratio against all UGT enzymes tested [1]: > 3.5
IC50 (CYP2A6 [2]): 3.4 µM
IC50 ratio CYP2E1/CYP2A6 (CYP2E1): 5.3
IC50 ratio UGT2B4/UGT2B10 (UGT2B4): 3.5
selectivity ratio at 15 min [3]: < 5
IC50 (CYP2A6 [4]): < 10 µM
IC50 ratio CYP1A2/CYP2A6 (CYP1A2): 7.4
IC50 ratio CYP2C19/CYP2A6 (CYP2C19): 2.7
IC50 ratio CYP2D6/CYP2A6 (CYP2D6): >15
